Laboratory results: patent publication US20140045779A1, “COMPOUNDS CONTAINING AN ALICYCLIE STRUCTURE AND ANTI-TUMOR APPLICATION” (priority 2011, published 2014)
≈ marks a conversion by molar mass, not a printed value. Read-outs that look alike come from different tables or passages of the source.

Columns and labels:
[1] = test system: mouse ascites sarcoma S180; experiment: Efficacy studies of anti-tumor in vivo, S180 sarcoma in Kunming mice; details: for Difference from the control group in S180 sarcoma growth: Kunming mice, S180, p<0.05; for Growth Inhibition of S180 sarcoma, inhibition rate: mouse, in vivo, ip
[2] = test system: MCF7 cells (breast cancer cells); experiment: In vitro anti-cancer cell experiment (MTT), MCF7; details: Homo sapiens
[3] = MCF7, 48 h, read-out: Growth Inhibition of cell line IC50, MCF7
[4] = MCF7, read-out: IC50, anti-proliferative effect on MCF7 cells

IC50 [2, 3] [µg/mL] | IC50 [2, 4] [µg/mL] | Compound | Difference from the control group in S180 sarcoma growth [1] | Growth Inhibition of S180 sarcoma, inhibition rate [1] [%]
 |  | O=C(CN1C(=O)C2C3CC(O)C(O3)C2C1=O)NC12CC3CC(CN(C3)C1)C2 (stereo not shown) [Example 7, N-((1r,3r)-1-azaadamantan-3-yl)-2-(5-hydroxy-1,3-dioxohexahydro-1H-4,7-epoxyisoindol-2(3H)-yl)acetamide] | significant difference | 
 |  | O=C(CN1C(=O)c2ccc([N+](=O)[O-])cc2C1=O)NC12CC3CC(CN(C3)C1)C2 [Example 8, N-((1r,3r,5R,7S)-1-azaadamantan-3-yl)-2-(5-nitro-1,3-dioxoisoindolin-2-yl)acetamide] | significant difference | 
 |  | Nc1ccc2c(c1)C(=O)N(CC(=O)NC13CC4CC(CN(C4)C1)C3)C2=O [Example 9, N-((1r,3r,5R,7S)-1-azaadamantan-3-yl)-2-(5-amino-1,3-dioxoisoindolin-2-yl)acetamide] | significant difference | 
 |  | O=C(Cn1cnc(-c2ccccc2)c1-c1ccccc1)NC12CC3CC(CC(C3)C1)C2 [Example 11, N-((1s,3s)-adamantan-1-yl)-2-(4,5-diphenyl-1H-imidazol-1-yl)acetamide] | significant difference | 
44.2 (≈ 291 µM) | 44.2 (≈ 291 µM) | O=C1C2CC3CC(C2)OC1C3 (stereo not shown) [Example 43, 2-oxaadamantan-4-one] |  | 
56.3 (≈ 365 µM) | 56.3 (≈ 365 µM) | OC12CC3CC(CC(C3)O1)C2 [Example 47, 2-oxaadamantan-1-ol] |  | 
6.94 (≈ 14.3 µM) | 6.94 (≈ 14.3 µM) | COc1cc(C23CN4CN(C2)CC(c2cc(OC)c(OC)c(OC)c2)(C4)C3=O)cc(OC)c1OC [Example 62, (1r,3r,5r,7r)-5,7-bis(3,4,5-trimethoxyphenyl)-1,3-diazaadamantan-6-one] |  | 
 |  | COC(=O)C12C3CC4CC5C3CC(CC5C1(C(=O)OC)N4C)N2C [Example 107, dimethanol decahydro-2,8,4,6-(cyclobutyl[1,2,3,4]dimethyl) naphthalene-2,4,4a,6-dicarboxylate] | significant difference | 
 |  | (1R,3R,5S,7S,Z)-1-azaadamantan-4- one oxime [Example 55] |  | 32
 |  | (1R,3S,5R,7S,Z)-1-hydroxy-3-methyl-2- oxaadamantan-6-one oxime [Example 74] |  | 20

Compound | IC50 [2, 3] [µg/mL] | IC50 [2, 4] [µg/mL] | Difference from the control group in S180 sarcoma growth [1] | Growth Inhibition of S180 sarcoma, inhibition rate [1] [%]
CCCCCNC12CN3CN(CN(C3)C1)C2 [Example 68, (1s,3s,5s)-N-pentyl-1,3,5-triazaadamantan-7-amine] | 2.28 (≈ 10.2 µM) | 2.28 (≈ 10.2 µM) | significant difference | 
